Measured values reported in patent publication US10167264B2, “Substituted pyrimidines useful as EGFR-T790M kinase inhibitors” (JIANGSU MEDOLUTION LTD, priority 2014, dated 2019).
Entries after “also recorded” stand apart in the source; their conditions may differ.

Key:
[1] = tested on: NCI-H1975 cell line xenograft; test: Subcutaneous NCI-H1975 cell line xenograft model in nude mice; format: in vivo; conditions: for Tumor growth inhibition (TGI, %) in NCI-H1975 xenograft model: nude mice; for Efficacy in the NCI-H1975 xenograft study (in words): Day 14
Protocol: A representative protocol for the in vivo experiment is as follows to establish the subcutaneous NCI-H1975 cell line xenograft model in nude mice and to evaluate the in vivo therapeutic efficacy of the compounds: H1975 cells were cultured in RPMI1640 containing 10% fetal bovine serum, 1% L-glutamine, 100 U/mL penicillinG and 100 μg/mL streptomycin. Cells in logarithmic growth phase were harvested and resuspended in 1×PBS for implantation. Tumor xenografts were established by injecting tumor cells 5×10^6/mouse into the right flank by sc under sterile conditions. When the tumors reached an appropriate size (100-200 mm^3), mice were randomized into 6 mice per group (8 mice in control group). The tumors were measured using a caliper in two dimensions, length (a), and width (b). Tumor volumes were estimated from measurements of two diameters of the individual tumors as follows: Tumor Volume (mm^3)=(a×b^2)/2 The tumor sizes and animal body weights were measured twice a week. Mice were observed daily for clinical signs. Blood samples were collected 2 hours after the last treatment, plasma samples were prepared and stored at −80° C. Tumor tissues were separated, weighed, taken picture, and subsequently stored at −80° C. for further analysis. All animal experiments were performed in accordance with the Guidelines for Use and Care of Animals of the University of Traditional Medicine. The parameters for in vivo efficacy evaluation were calculated according to the guidance of SFDA. Percent T/C (%) was calculated with the following formula: T/C(%)=(TRTV/CRTV)×100%, where TRTV and CRTV stand for relative tumor volume in treatment group and vehicle control group, respectively. Relative tumor volume (RTV) was calculated using the formula: RTV=Vt/V0, where Vt represents volume on testing day, and V0 represents volume on first day of treatment. […] At the study endpoint, after blood collection, mice were practised euthanasia by cervical dislocation, the tumor tissue was collected first, then the abdominal cavity was cut open, liver and spleen were excised, and weighted after the gallblader was removed respectively. Organ weights between the treated versus the control groups were compared.

NCI-H1975 = test: Cell proliferation assay (MTT) against cancer cell line NCI-H1975; format: cell-based; conditions: Homo sapiens, NCI-H1975, 72 hours treatment, quantity not given
Protocol: A Representative Number of Compounds were Assayed Against Cancer Cell Lines NCI-H1975, Using the Cell Proliferation Assay:
1. 5×10^3 cells per well in 100 μl of medium were seeded in 96-well plate, while the medium contained 5% FBS
2. 24 hours later, 100 μl fresh medium was added with various concentrations of compounds into each well, while the medium here was free of FBS
3. After the cells were treated with compounds for 72 hours, 20 μl MTT (5 mg/ml) was added into each well, and then the assay plate was incubated at 37° C. for 4 more hours.
4. The assay plate was centrifuged at 800 g for 10 min. The medium was aspirated, 150 μl DMSO was added into each well. The plate was gently shaken for 10 min.
5. The absorbance at 570 nm was measured on the plate reader.

EGFR = EGFR (Homo sapiens (Human), UniProt P00533); test: In vitro EGFR kinase binding assay (Kd), similar condition
Protocol: (§1) Kinase-tagged T7 phage strains were prepared in an E. coli host derived from the BL21 strain. E. coli were grown to log-phase and infected with T7 phage and incubated with shaking at 32° C. until lysis. The lysates were centrifuged and filtered to remove cell debris. The remaining kinases were produced in HEK-293 cells and subsequently tagged with DNA for qPCR detection. Streptavidin-coated magnetic beads were treated with biotinylated small molecule ligands for 30 minutes at room temperature to generate affinity resins for kinase assays. The liganded beads were blocked with excess biotin and washed with blocking buffer (SeaBlock (Pierce), 1% BSA, 0.05% Tween 20, 1 mM DTT) to remove unbound ligand and to reduce non-specific binding. […] All reactions were performed in polystyrene 96-well plates in a final volume of 0.135 ml. […] The kinase concentration in the eluates was measured by qPCR.
(§2) An 11-point 3-fold serial dilution of each test compound was prepared in 100% DMSO at 100× final test concentration and subsequently diluted to 1× in the assay (final DMSO concentration=1%). Kds were determined using a compound top concentration=10,000 nM.
(§3) Binding constants (Kds) were calculated with a standard dose-response curve using the Hill equation: Response=Background+(Signal−Background)/(1+(Kd^Hill Slope/Dose^Hill Slope)). The Hill Slope was set to −1. […]

EGFR (E746-A750del) = EGFR (E746-A750del) (Homo sapiens (Human), UniProt P00533, DEL746-750); test: In vitro EGFR (E746-A750del) kinase binding assay (Kd), similar condition
Protocol: as §1, §2, §3

EGFR (T790M/L858R) = EGFR (T790M/L858R) (Homo sapiens (Human), UniProt P00533, L858R/T790M); test: In vitro EGFR (T790M/L858R) kinase binding assay (Kd, qPCR readout)
Protocol: as §1, §2
Binding constants (Kds) were calculated with a standard dose-response curve using the Hill equation: Response=Background+(Signal−Background)/(1+(Kd^Hill Slope/Dose^Hill Slope)). The Hill Slope was set to −1. Curves were fitted using a non-linear least square fit with the Levenberg-Marquardt algorithm.

EGFR (T790M/L858R), sequence (P00533 25-1210 T790M/L858R): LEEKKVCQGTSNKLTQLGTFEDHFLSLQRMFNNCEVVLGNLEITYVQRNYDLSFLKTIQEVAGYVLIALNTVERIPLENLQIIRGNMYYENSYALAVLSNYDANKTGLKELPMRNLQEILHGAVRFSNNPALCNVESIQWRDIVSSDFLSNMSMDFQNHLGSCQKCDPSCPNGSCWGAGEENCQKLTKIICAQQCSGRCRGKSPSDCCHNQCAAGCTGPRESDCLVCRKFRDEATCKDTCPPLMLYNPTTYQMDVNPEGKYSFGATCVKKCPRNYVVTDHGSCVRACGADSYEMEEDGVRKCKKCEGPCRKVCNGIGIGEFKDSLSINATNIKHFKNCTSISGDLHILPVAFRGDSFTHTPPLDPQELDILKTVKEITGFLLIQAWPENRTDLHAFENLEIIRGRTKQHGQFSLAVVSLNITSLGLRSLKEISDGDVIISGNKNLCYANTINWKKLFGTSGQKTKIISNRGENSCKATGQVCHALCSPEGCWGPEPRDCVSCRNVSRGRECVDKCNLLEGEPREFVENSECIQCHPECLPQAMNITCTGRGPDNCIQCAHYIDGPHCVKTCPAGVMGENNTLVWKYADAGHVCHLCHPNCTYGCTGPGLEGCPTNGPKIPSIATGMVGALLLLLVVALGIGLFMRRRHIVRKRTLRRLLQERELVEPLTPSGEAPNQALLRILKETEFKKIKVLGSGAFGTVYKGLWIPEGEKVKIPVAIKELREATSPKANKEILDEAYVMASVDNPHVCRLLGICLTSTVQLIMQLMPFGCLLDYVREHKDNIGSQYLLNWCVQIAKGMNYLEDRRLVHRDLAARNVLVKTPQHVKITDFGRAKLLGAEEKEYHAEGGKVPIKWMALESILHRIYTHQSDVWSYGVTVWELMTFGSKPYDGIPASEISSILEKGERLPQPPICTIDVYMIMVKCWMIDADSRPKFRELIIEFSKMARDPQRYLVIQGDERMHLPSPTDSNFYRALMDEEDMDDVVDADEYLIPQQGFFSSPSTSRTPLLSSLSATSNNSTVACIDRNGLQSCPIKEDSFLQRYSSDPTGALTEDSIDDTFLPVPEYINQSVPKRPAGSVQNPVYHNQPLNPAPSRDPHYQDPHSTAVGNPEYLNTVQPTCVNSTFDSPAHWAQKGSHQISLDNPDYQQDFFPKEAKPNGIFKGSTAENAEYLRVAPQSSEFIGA
EGFR (E746-A750del), sequence (P00533 other isoform, or with tags, fused parts or gaps del E746-A750): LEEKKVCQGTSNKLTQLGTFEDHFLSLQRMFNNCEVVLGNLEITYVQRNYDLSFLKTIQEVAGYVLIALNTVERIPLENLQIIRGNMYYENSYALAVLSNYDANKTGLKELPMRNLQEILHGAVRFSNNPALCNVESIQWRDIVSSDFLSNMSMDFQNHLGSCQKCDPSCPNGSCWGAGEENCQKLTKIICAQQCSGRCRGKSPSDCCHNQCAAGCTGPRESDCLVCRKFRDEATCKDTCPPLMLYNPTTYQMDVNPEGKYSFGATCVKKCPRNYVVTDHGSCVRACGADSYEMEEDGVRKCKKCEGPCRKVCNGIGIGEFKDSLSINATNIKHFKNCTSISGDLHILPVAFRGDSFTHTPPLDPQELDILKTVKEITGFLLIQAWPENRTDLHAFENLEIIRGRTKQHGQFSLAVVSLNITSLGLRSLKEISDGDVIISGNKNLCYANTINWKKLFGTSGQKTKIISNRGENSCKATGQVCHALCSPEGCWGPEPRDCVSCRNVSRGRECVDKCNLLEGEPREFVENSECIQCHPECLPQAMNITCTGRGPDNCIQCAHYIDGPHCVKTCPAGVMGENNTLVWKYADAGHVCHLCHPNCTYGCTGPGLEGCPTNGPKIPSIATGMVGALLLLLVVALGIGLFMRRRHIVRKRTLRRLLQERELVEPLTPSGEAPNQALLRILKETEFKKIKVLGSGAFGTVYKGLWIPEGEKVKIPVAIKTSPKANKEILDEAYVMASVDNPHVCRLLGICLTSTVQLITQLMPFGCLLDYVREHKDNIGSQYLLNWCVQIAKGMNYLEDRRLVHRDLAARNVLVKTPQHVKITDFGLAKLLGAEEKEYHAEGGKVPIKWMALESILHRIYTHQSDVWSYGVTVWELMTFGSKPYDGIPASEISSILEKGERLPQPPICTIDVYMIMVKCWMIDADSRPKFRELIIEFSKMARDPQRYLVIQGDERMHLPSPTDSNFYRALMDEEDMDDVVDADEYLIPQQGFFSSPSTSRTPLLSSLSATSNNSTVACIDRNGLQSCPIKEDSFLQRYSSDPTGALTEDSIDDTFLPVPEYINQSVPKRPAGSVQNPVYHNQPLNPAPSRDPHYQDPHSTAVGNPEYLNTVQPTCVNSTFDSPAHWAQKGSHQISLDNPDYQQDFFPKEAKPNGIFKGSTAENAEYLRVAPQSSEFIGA
EGFR, sequence (P00533 25-1210): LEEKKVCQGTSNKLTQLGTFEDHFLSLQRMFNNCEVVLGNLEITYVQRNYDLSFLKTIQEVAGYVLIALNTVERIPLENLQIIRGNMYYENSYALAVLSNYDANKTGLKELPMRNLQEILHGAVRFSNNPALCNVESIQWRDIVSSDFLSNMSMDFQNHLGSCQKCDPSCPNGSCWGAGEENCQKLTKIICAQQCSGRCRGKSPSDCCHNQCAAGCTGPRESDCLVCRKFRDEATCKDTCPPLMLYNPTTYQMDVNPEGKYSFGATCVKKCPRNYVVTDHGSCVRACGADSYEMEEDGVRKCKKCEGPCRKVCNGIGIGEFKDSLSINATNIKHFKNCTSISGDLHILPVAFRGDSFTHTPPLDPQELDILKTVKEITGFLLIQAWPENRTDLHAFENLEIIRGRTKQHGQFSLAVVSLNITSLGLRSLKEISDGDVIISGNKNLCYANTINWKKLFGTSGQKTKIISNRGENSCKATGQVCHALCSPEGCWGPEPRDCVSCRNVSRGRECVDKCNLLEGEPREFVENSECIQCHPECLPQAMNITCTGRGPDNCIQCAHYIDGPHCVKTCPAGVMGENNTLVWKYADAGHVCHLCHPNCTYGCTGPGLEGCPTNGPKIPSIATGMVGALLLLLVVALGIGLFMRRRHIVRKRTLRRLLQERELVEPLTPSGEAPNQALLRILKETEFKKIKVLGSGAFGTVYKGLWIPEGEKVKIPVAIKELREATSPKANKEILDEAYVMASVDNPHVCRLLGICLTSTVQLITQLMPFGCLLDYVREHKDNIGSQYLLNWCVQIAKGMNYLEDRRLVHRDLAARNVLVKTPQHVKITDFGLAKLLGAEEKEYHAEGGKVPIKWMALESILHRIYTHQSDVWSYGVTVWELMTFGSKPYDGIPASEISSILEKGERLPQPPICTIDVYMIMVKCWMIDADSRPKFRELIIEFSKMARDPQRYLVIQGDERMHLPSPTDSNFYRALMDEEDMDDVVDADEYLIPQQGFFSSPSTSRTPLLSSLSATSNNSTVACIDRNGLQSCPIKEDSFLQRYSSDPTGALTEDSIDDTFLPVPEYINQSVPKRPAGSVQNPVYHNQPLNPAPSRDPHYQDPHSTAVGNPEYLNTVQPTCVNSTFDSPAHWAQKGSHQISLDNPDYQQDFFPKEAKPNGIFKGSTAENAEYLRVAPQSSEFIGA

Compound | IC50 (NCI-H1975) | Kd (EGFR) | Kd (EGFR (E746-A750del)) | Kd (EGFR (T790M/L858R)) | Tumor growth inhibition (TGI, %) in NCI-H1975 xenograft model ([1]; Day 14, 30 mg/kg) | Efficacy in the NCI-H1975 xenograft study (in words) [1] | Tumor growth inhibition (TGI, %) in NCI-H1975 xenograft model ([1]; Day 14, 6 mg/kg)
C=CC(=O)Nc1cccc(Nc2nc(Nc3ccc(N4CCN(C(C)=O)CC4)cc3OC)ncc2C(F)(F)F)c1 [CO-1686, reference compound] | 910 nM | – | – | – | TGI = 83% | – | –
C=CC(=O)Nc1cccc(Nc2nc(Nc3ccc(N4CCN(C(C)=O)CC4)cc3)ncc2C(F)(F)F)c1 [Compound 8, N-[3-[[2-[4-(4-acetylpiperazin-1-yl)anilino]-5-(trifluoromethyl)pyrimidin-4-yl]amino]phenyl]prop-2-enamide] | – | 84 nM | 26 nM | 0.54 nM | TGI = 49% | good efficacy | –
C=CC(=O)Nc1cccc(Nc2nc(Nc3ccc(N4CCN(CC)CC4)cc3)ncc2C(F)(F)F)c1 [Compound 9, N-[3-[[2-[4-(4-ethylpiperazin-1-yl)anilino]-5-(trifluoromethyl)pyrimidin-4-yl]amino]phenyl]prop-2-enamide] | < 10 nM | 15 nM | 4 nM | 0.037 nM | – | good efficacy; also recorded: much better tumor growth inhibition compared with CO-1686 | TGI = 76%

Continued, in another order:

IC50 (NCI-H1975) | Kd (EGFR) | Kd (EGFR (E746-A750del)) | Kd (EGFR (T790M/L858R)) | Compound | Tumor growth inhibition (TGI, %) in NCI-H1975 xenograft model ([1]; Day 14, 30 mg/kg) | Efficacy in the NCI-H1975 xenograft study (in words) [1] | Tumor growth inhibition (TGI, %) in NCI-H1975 xenograft model ([1]; Day 14, 6 mg/kg)
150 nM | – | – | 0.28 nM | C=CC(=O)Nc1cccc(Nc2nc(Nc3ccc(N4CCN(CC)CC4)cc3OC)ncc2C(F)(F)F)c1 [Compound 10, N-[3-[[2-[4-(4-ethylpiperazin-1-yl)-2-methoxy-anilino]-5-(trifluoromethyl)pyrimidin-4-yl]amino]phenyl]prop-2-enamide] | – | – | –
67 nM | – | – | – | C=CC(=O)Nc1cccc(Oc2nc(Nc3ccc(N4CCN(C)CC4)cc3OC)ncc2Cl)c1 [WZ4002, reference compound] | – | – | –
